The values below come from patent US5616618A, “Threo-3-(3,4-dihydroxyphenyl)serine analgesic composition” (priority 1993, dated 1997).

The test system of data set [1] is mice. Briefly: Effect of naloxone on L-threo-DOPS antinociception, tail flick test. The conditions noted are these: for type of analgesic activity: from naloxone tests (tail flick and kaolin). The data set is classed as in vivo. Here is the method: (§1) Antagonistic Effect of L-threo-DOPS Antinociceptive Action on Naloxone (Morphine Antagonist)
(§2) Tests were conducted in the same way as the tail flick test method and the kaolin-induced writhing test method in Test Example 1 described above. In the tail flick test method, however, 1 mg/kg of naloxone was subcutaneously administered 40 minutes after administration of 400 mg/kg of L-threo-DOPS, and the latency was measured 60 minutes after the 400 mg/kg L-threo-DOPS administration. The obtained data are shown in terms of change in latency (Δ latency). In the kaolin-induced writhing test, 0.01 mg/kg of naloxone was subcutaneously administered 55 minutes after administration of 400 mg/kg of L-threo-DOPS, and kaolin was administered 5 minutes after the administration of naloxone.
(§3) The results obtained in the tests are all shown by means ±standard error. Statistically significant difference between the groups was determined by Student's t-test or Newman-Keuls test. When P<0.05, the difference was judged to be significant.
(§4) The symbol V denotes the group administered with vehicle only, and the symbol N.S. denotes that there is no significant difference as compared to the control group.

For data set [2], the system named is mice. Briefly: Tail flick test, subcutaneous L-threo-DOPS. Type of data set: in vivo. Here is the method: Thermal stimulation at a certain level was given onto mice at the tail, and the latency until the animal flicked the tail out of the thermal stimulation was measured. The analgesic effect was judged in terms of prolonged latency by administration of a drug (tail-flick test, see European Journal of Pharmacology, 212, 1992).
The test was conducted by using a tail flick analgesia meter (MK-330, Muromachi Kikai). The intensity of the beam was adjusted to produce a control latency of 2 to 2.5 seconds, and a cut-off time was set to be 8 seconds. The experimental data obtained were shown in terms of latency (second).
L-Threo-DOPS was suspended in a 0.2% Tween 80 solution and the resulting suspension was subcutaneously administered in a dose of 100 to 400 mg/kg. The tail flick latency was then measured with passage of time to determine antinociceptive action, namely, analgesic activity.
In the left graph, the symbol .largecircle. denotes the group administered with vehicle only (n=8), and the symbol .circle-solid. denotes the group administered with L-threo-DOPS (n=5). […] In the right graph, the symbol V denotes the group administered with vehicle only. *P<0.05, **P<0.01 (when compared to the group administered with vehicle only).
(§5) The results obtained in the respective tests are all shown by means ±standard error. Statistically significant difference between the groups was determined by Student's t-test or Newman-Keuls test. When P<0.05, the difference was judged to be significant.

The subject of data set [3] is mice. Put plainly: Effect of phentolamine on L-threo-DOPS antinociception, tail flick test. The data set is classed as in vivo. Here is the method: Effect of Phentolamine as an α-Adrenaline Receptor Blocker on the Antinociceptive Action of L-threo-DOPS
Phentolamine was administered intracerebral-ventricularly (i.c.v.) or intrathecaly (i.th.) in a dose of 0.1 to 1 μg/mouse, 40 minutes after L-threo-DOPS was administered in a dose of 400 mg/kg. Then, the effect of phentolamine against L-threo-DOPS-induced antinociceptive action was determined in the tail flick test.
Statistically significant difference between the groups was determined by Student's t-test or Newman-Keuls test. When P<0.05, the difference was judged to be significant.
The results in FIG. 5 indicates change in latency (Δ latency, second) 60 minutes after the L-threo-DOPS administration.
For orientation: Thermal pain tests record how soon the animal reacts.

The subject of data set [4] is mice. Put plainly: Kaolin-induced writhing test. Type of data set: in vivo.
Source text: (§6) Mice were used for the kaolin-induced writhing test and the formalin test, wherein animal model for assessment of chronic pain is used [Pain, 51, 195-198 (1992)].
b) Kaolin-Induced Writhing Test
The test was proposed by Fujiyoshi, T. et al. as a nociceptive test for the assessment of endogenous bradykinin-induced pain [Fujiyoshi et al., Agents and Actions, 27, 332 (1989)]. In the present invention, a method somewhat modified from the Fujiyoshi test was used for the assessment. That is, a suspension of 125 mg/kg of kaolin in 0.2% Tween 80 solution was intraperitoneally administered to mice in a dose of 0.25 ml/10 g. Immediately thereafter, the total number of writhing reactions which were observed during 20 minutes was counted.
Thirty minutes, 1 hour and 2 hours before administration of kaolin, L-threo-DOPS was subcutaneously administered in a dose ranging from 100 to 400 mg/kg.
In the left graph, the symbol .largecircle. denotes the group administered with vehicle only, and the symbol .circle-solid. denotes the group administered with L-threo-DOPS. […] The symbol V denotes the group administered with vehicle only (n=5). **P<0.01, ***P<0.001 (when compared to the group administered with vehicle only).
as §5

The conditions of data set [5]: cited from earlier work.
Data set [6] deals with mice. Put plainly: Formalin-induced nociceptive test. Type of data set: in vivo. Here is the method: as §6
c) Formalin-Induced Nociceptive Test
Formalin (0.5%, 25 μl) was administered subcutaneously into a mouse at the sole of the right hind paw. Immediately thereafter, the time required for the mouse to conduct licking or biting behavior was counted for 30 minutes at intervals of 5 minutes. The results are shown separately for Phase I (0-5 minutes after the formalin administration) and Phase II (10-30 minutes after the formalin administration). […]
The symbol V denotes the group administered with vehicle only. *P<0.05 (as compared to the group administered with vehicle only).
as §5

The subject of data set [7] is mouse. Briefly: Acute toxicity (LD50) in mouse. The conditions noted are these: oral and intraperitoneal.
Data set [8] is described as follows: Acute toxicity (LD50) in mouse. The conditions noted are these: in vivo.
The subject of data set [9] is mice. Put plainly: Effect of naloxone on L-threo-DOPS antinociception, kaolin-induced writhing test. Type of data set: in vivo. The conditions noted are these: L-threo-DOPS 400 mg/kg; naloxone 0.01 mg/kg s.c.; 60 minutes. As for the experimental part:
as §1, §2, §3, §4
For orientation: Writhing tests count abdominal constrictions after an irritant is injected.

Data set [10] has as its system mice. Briefly: Effect of benserazide on L-threo-DOPS antinociception, tail flick test. Type of data set: in vivo. The conditions noted are these: L-threo-DOPS 400 mg/kg s.c., 60 minutes. As for the experimental part: Effect of Benserazide (Peripheral Nerve Decarboxylase Inhibitor) on the Antinociceptive Action of L-threo-DOPS
Benserazide was administered subcutaneously in a dose of 1 mg/kg, 60 minutes before the subcutainious administration of L-threo-DOPS (400 mg/kg). Alternatively, benserazide was administered intracerebralventricularly at a dose of 25 μg/mouse, 30 minutes before L-threo-DOPS was subcutaneously administered in a dose of 400 mg/kg. The effect of benserazide on the L-threo-DOPS-induced antinociceptive action 60 minutes after the L-threo-DOPS administration was examined according to the tail flick test.
(§7) The results obtained in this test are all shown by means ±standard error. Statistically significant difference between the groups was determined by Student's t-test or Newman-Keuls test. When P<0.05, the difference was judged to be significant.
The results in FIG. 6 indicate change in latency (Δ latency, second) 60 minutes after the L-threo-DOPS administration. […] The symbol V denotes the group administered with vehicle only, and the symbol N.S. denotes that there is no significant difference as compared to the control group.

Data set [11] has as its system mice. Briefly: Tail flick test, oral L-threo-DOPS. The data set is classed as in vivo. As for the experimental part:
Antinociceptive Action of L-threo-DOPS by Oral Administration
L-Threo-DOPS was orally administered to mice in doses of 200, 400 and 800 mg/kg, and was examined for the antinociceptive action according to the tail flick test method.
as §7
The results in FIG. 7 indicate, in the tail flick test, a relationship between the dose of L-threo-DOPS when orally administered and change in latency (Δ latency, second) 60 minutes after the L-threo-DOPS administration (n=6). *P<0.05, **P<0.01 (as compared to the control group).

[12] abbreviates: 100 to 400 mg/kg s.c., 60 minutes after administration.

Entries after “also recorded” stand apart in the source; their conditions may differ.

One may read the LD50 as the dose at which mortality reaches 50%. Turning to `N[C@H](C(=O)O)[C@H](O)c1ccc(O)c(O)c1` (relative stereo) [threo-DOPS, threo-3-(3,4-dihydroxyphenyl)serine], the “type of analgesic activity” value in [1] is on record as “non-narcotic”. Besides, in data set [1] (morphine antagonist naloxone, tail flick and kaolin tests), the “analgesic effect in presence of naloxone (summary)” value is “not antagonized by morphine antagonist, naloxone”. In addition, the “analgesic effect in tail-flick test (summary)” value in [2] (s.c., mice) is “exhibits the analgesic effect dose-dependently”. Also, the “analgesic effect in presence of phentolamine (summary)” value in [3] (adrenaline blocker phentolamine administered in the brain) is listed as “suppressed”. Moreover, the “analgesic effect in kaolin-induced writhing test (summary)” value in data set [4] (s.c. and oral, mice) is “dose- dependently observed”. Also, the fate after administration entry in [5] (known, U.S. Pat. No. 4,497,826) was “transported to a brain that is a site on which threo-DOPS acts, and then decarboxylated therein into a corresponding noradrenaline”. In [5] (with decarboxylase inhibitor, J. Pharm. Pharmacol., 1981, 33, 772-777), the “transportation into brain in combination with decarboxylase inhibitor” value is given as “can be accelerated”. In addition, the “analgesic effect in formalin test (summary)” value in [6] (s.c. and oral, mice) is given as “dose- dependently observed”. For the same compound, in data set [7], the toxicity result is given as “extremely weak toxicity”. In addition, the LD50 in data set [8] (ip) is ~10000 mg/kg; in data set [8] (po), ≥ 10000 mg/kg.

For `N[C@H](C(=O)O)[C@H](O)c1ccc(O)c(O)c1` [L-threo-DOPS], in [1] (L-threo-DOPS 400 mg/kg, naloxone 1 mg/kg s.c., 60 minutes), the “antinociceptive action in presence of naloxone (tail flick)” value was “hardly affected by morphine antagonist, naloxone”. The “type of analgesic activity” value in data set [1] is reported as “non-narcotic analgesic activity; also recorded: non-opiate type antinociceptive action”. Moreover, the “antinociceptive action in presence of naloxone (kaolin-induced writhing)” value in data set [9] was “hardly affected by morphine antagonist, naloxone”. In data set [2] (400 mg/kg s.c.), the “time after administration at which significantly prolonged tail flick latency was observed” value was ≥ 40 min and the “time of maximum tail flick latency” value is “one”. Also, the tail flick latency entry in [2] (400 mg/kg s.c., 40 or more minutes after administration) is reported as “significantly prolonged latency”. In [2] (400 mg/kg s.c., 2 hours after administration), the “tail flick latency, significance of effect” value is recorded as “no significant effect was observed”. Further, the “antinociceptive action, dose dependence (tail flick)” value in data set [2] (setting [12]) is on record as “dose-dependent in the range of 100 to 400 mg/kg”. In [10] (benserazide 25 μg/mouse i.c.v.), the “antinociceptive action in presence of benserazide” value is “potently inhibited”. The “antinociceptive action in presence of benserazide” value in data set [10] (benserazide 1 mg/kg s.c.) was “did not give any significant effect”. Also, the “inhibitory effect of phentolamine on L-threo-DOPS-induced prolongation of latency” value in data set [3] (L-threo-DOPS 400 mg/kg s.c., phentolamine 0.1 μg/mouse i.c.v.) is reported as “also observed”. Moreover, in [3] (L-threo-DOPS 400 mg/kg s.c., phentolamine 1 μg/mouse i.c.v.), the “prolongation of latency by L-threo-DOPS in presence of phentolamine” value was “almost completely inhibited”. For the same compound, the “antinociceptive action of L-threo-DOPS in presence of phentolamine, right graph of FIG. 5” value in data set [3] (L-threo-DOPS 400 mg/kg s.c., phentolamine 1 μg/mouse, printed intracerebralventricularly (right graph)) is “partially but significantly inhibited”. Moreover, in [4] (200 mg/kg s.c.), the “antinociceptive action, kaolin-induced writhing” value is “significant antinociceptive action” and the “count of kaolin-induced writhing response” value is “decreased to the half”. Besides, the “decrease in writhing count” value in data set [4] (200 mg/kg s.c., 30 minutes after administration) is “the observed decrease was insignificant”. Moreover, in [4] (200 mg/kg s.c., 2 hours after administration), the “decrease in writhing count” value is on record as “the observed decrease was insignificant”. The “effect on writhing, dose dependence” value in data set [4] (setting [12]) was “dose-dependent in the range of 100 to 400 mg/kg”. Also, the “effectiveness by oral administration” value in data set [11] (oral) was “also effective when orally administered”. In addition, in [11] (oral, 200, 400 and 800 mg/kg), the “time after administration at which significant effect was observed” value is ≥ 40 min and the “time of maximum antinociceptive effect” value came to 60 min. Besides, the “antinociceptive action, dose dependence (oral tail flick)” value in data set [11] (oral, 200 to 800 mg/kg) is reported as “dose-dependently”. In addition, the “effect of increased dose in formalin test” value in [6] (400 mg/kg s.c., not shown in graphs) was “no better effect was obtained”. Besides, the “time required for nociceptive reaction (licking and biting), Phase I” value in data set [6] (100 to 200 mg/kg s.c., 0-5 minutes after formalin) is listed as “did not affect the time required for the nociceptive reaction”. The “time required for nociceptive reaction (licking and biting), Phase II” value in data set [6] (100 to 200 mg/kg s.c., 10-30 minutes after formalin) is reported as “dose-dependently inhibited the reaction”.

With `Cc1ccc(N(CC2=NCCN2)c2cccc(O)c2)cc1` [phentolamine], in data set [3] (phentolamine 1 μg/mouse i.c.v.), the “tail flick latency, phentolamine alone” value is “did not affect the latency”.
